In US10934286B2, “Heterocyclic sulfones as ROR gamma modulators” (BRISTOL-MYERS SQUIBB COMPANY, priority 2016, dated 2021):
pIC50: −log10 of the molar value.

Target: T1, RORγ receptor (Homo sapiens, UniProt P51449)
T1 construct: Jurkat pEx/Gal/hRORγ CLBD/HYG pG51uc/blast; expressed in transfected cells
T1 sequence (P51449 269-508 limits assumed): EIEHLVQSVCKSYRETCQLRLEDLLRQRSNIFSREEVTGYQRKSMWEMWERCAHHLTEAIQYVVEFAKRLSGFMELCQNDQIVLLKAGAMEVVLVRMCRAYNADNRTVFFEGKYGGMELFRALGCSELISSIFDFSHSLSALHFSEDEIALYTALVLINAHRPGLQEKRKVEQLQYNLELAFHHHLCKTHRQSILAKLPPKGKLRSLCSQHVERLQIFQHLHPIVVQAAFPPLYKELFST
Assay: General RORγ Gal4 reporter assay (inverse agonist activity, inhibition of luminescence)
Format: cell-based
Conditions: Gal4-luciferase reporter in Jurkat cells stably over-expressing hRORγ LBD; overnight incubation; 40 μM to 0.67 nM
Experimental: General RORγ Gal4 Reporter Assay Inverse agonist activity of potential ligands to RORγ was measured by inhibition of luminescence in a Gal4-luciferase reporter assay in Jurkat cells.
The following day, cells were lysed with 10 μL of Steady-Glo Luciferase Assay System (Promega Cat. No. EZ550), and analyzed immediately. IC50 values were determined.

| SMILES | pIC50 |
| --- | --- |
| O=C(C1CCS(=O)(=O)CC1)N1CCC2(S(=O)(=O)c3ccccc3)c3ccc(C(F)(C(F)(F)F)C(F)(F)F)nc3CCC12 (stereo not shown) [Example 12] | 8.05 |
| C[C@H]1C[C@H](C(=O)O)CC[C@H]1C(=O)N1CCC2(S(=O)(=O)c3ccccc3)c3ccc(C(F)(C(F)(F)F)C(F)(F)F)nc3CCC12 (stereo partly shown) [Example 29] | 7.89 |
| O=C(C1CCS(=O)(=O)CC1)N1CCC2(S(=O)(=O)c3cccc(F)c3)c3ccc(C(F)(C(F)(F)F)C(F)(F)F)nc3CCC12 (stereo not shown) [Example 22] | 8.05 |
| CC(C)(O)CN1C(=O)[C@@H]2C[C@@H]2[C@H]1C(=O)N1CCC2(S(=O)(=O)c3cccc(F)c3)c3ccc(C(F)(C(F)(F)F)C(F)(F)F)nc3CCC12 (stereo partly shown) [Example 49] | 7.74 |
| O=C(O)[C@H]1CC[C@H](C(=O)N2CCC3(S(=O)(=O)c4cccc(F)c4)c4cnc(C(F)(C(F)(F)F)C(F)(F)F)cc4CCC23)CC1 (stereo partly shown) [Example 26] | 7.89 |
| O=C(CC1(O)CCS(=O)(=O)C1)N1CCC2(S(=O)(=O)c3ccccc3)c3ccc(C(F)(C(F)(F)F)C(F)(F)F)nc3CCC12 (stereo not shown) [Example 11] | 7.68 |

Further lines, results first:

| pIC50 | SMILES |
| --- | --- |
| 7.16 | [2H]C([2H])([2H])N1C(=O)[C@H](F)C[C@H]1C(=O)N1CCC2(S(=O)(=O)c3ccc(F)cc3)c3ncc(C(F)(C(F)(F)F)C(F)(F)F)cc3CCC12 (stereo partly shown) [Example 2] |
| 6.77 | CC(C)(O)CN1C(=O)[C@H](F)C[C@@H]1C(=O)N1CCC2(S(=O)(=O)c3ccc(F)cc3)c3ccc(C(F)(C(F)(F)F)C(F)(F)F)nc3CCC12 (single isomer, unassigned) [Example 44] |
| 7.21 | O=C([C@@H]1CCC(=O)N1Cc1ccc(F)cc1)N1CCC2(S(=O)(=O)c3ccc(F)cc3)c3ncc(C(F)(C(F)(F)F)C(F)(F)F)cc3CCC12 (stereo partly shown) [Example 3] |
| 6.28 | CC(C)(O)CN1C(=O)[C@H](F)C[C@@H]1C(=O)N1CCC2(S(=O)(=O)c3ccc(F)cc3)c3cnc(C(F)(C(F)(F)F)C(F)(F)F)cc3CCC12 (stereo partly shown) [Example 45] |
| 7.04 | O=C(C1CCS(=O)(=O)CC1)N1CCC2(S(=O)(=O)c3ccc(F)cc3)c3ncc(C(F)(C(F)(F)F)C(F)(F)F)cc3CCC12 (stereo not shown) [Example 8] |
| 7.85 | CC(C)(O)CN1C(=O)[C@H](F)C[C@H]1C(=O)N1CCC2(S(=O)(=O)c3cccc(F)c3)c3cnc(C(F)(C(F)(F)F)C(F)(F)F)cc3CCC12 (stereo partly shown) [Example 50] |
| 7.51 | [2H]C([2H])([2H])N1C(=O)[C@H](F)C[C@H]1C(=O)N1CCC2(S(=O)(=O)c3ccccc3)c3ccc(C(F)(C(F)(F)F)C(F)(F)F)nc3CCC12 (stereo partly shown) [Example 66] |
